According to patent US20220249576A1 (priority 2021, published 2022):

Assays:
[1] = tested on: Aspergillus endosomal development; settings: previously observed; cited from earlier work
A. flavus = assay type: cell-based, Aspergillus flavus

Compound | minimal inhibitory concentration (MIC) for disruption of Aspergillus endosomal development [1] | aflatoxin levels compared to the filipin treated samples (A. flavus) | aflatoxin production compared to untreated control (A. flavus + the exemplary composition) (A. flavus)
CCCCC[C@@H](O)[C@H]1C(=O)O[C@H](C)[C@@H](O)/C=C/C=C/C=C/C=C/C=C(\C)[C@@H](O)C[C@H](O)C[C@H](O)C[C@H](O)C[C@H](O)C[C@H](O)C[C@@H]1O [filipin] | 3 µM |  | 
C[C@@H]1C/C=C/C=C/C=C/C=C/[C@H](O[C@@H]2O[C@H](C)[C@@H](O)[C@H](N)[C@@H]2O)C[C@@H]2O[C@](O)(C[C@@H](O)C[C@H]3O[C@@H]3/C=C/C(=O)O1)C[C@H](O)[C@H]2C(=O)O [natamycin] | 6 µM | significantly greater increase | increase aflatoxin production
